Results from PubChem BioAssay AID2060616 (Molecular Pharmacology Branch, DTP, NCI, 2025).
Values joined by “and” are separate entries in the source; they are usually repeats but may differ in a detail not shown here. Identical values can stand only once. Values belong to the compound of their own block, whether it stands above or below them.

Tested on: 377384-186-R-J1-PDC complex spheroid viability
Experiment: Anticancer human tumor 377384-186-R-J1-PDC patient-derived pancreatic carcinoma cell line growth inhibition [CLK]
Conditions: for viability, T/C: stronger effect = lower value; for IC50: curve of first compound
Procedure, shortened: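 Patient-derived tumor cells grown as complex spheroids with HUVEC endothelial cells and mesenchymal stem cells, treated with drug combinations. Concentrations descend in half-log steps from near clinical Cmax, or from 10 microM if Cmax unknown.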

[1] = second compound 0.0316 µM, first compound 0.0316 µM
[2] = second compound 0.0316 µM, first compound 0.1 µM
[3] = second compound 0.0316 µM, first compound 0.316 µM
[4] = second compound 0.0316 µM, first compound 1 µM
[5] = second compound 0.0316 µM, first compound 3.16 µM
[6] = second compound 0.0316 µM, first compound 10 µM
[7] = second compound 0.1 µM, first compound 0.0316 µM
[8] = second compound 0.1 µM, first compound 0.1 µM
[9] = second compound 0.1 µM, first compound 0.316 µM
[10] = second compound 0.1 µM, first compound 1 µM
[11] = second compound 0.1 µM, first compound 3.16 µM
[12] = second compound 0.1 µM, first compound 10 µM
[13] = second compound 0.316 µM, first compound 0.0316 µM
[14] = second compound 0.316 µM, first compound 0.1 µM
[15] = second compound 0.316 µM, first compound 0.316 µM
[16] = second compound 0.316 µM, first compound 1 µM
[17] = second compound 0.316 µM, first compound 3.16 µM
[18] = second compound 0.316 µM, first compound 10 µM
[19] = second compound 1 µM, first compound 0.0316 µM
[20] = second compound 1 µM, first compound 0.1 µM
[21] = second compound 1 µM, first compound 0.316 µM
[22] = second compound 1 µM, first compound 1 µM
[23] = second compound 1 µM, first compound 3.16 µM
[24] = second compound 1 µM, first compound 10 µM
[25] = second compound 3.16 µM, first compound 0.0316 µM
[26] = second compound 3.16 µM, first compound 0.1 µM
[27] = second compound 3.16 µM, first compound 0.316 µM
[28] = second compound 3.16 µM, first compound 1 µM
[29] = second compound 3.16 µM, first compound 3.16 µM
[30] = second compound 3.16 µM, first compound 10 µM
[31] = second compound 10 µM, first compound 0.0316 µM
[32] = second compound 10 µM, first compound 0.1 µM
[33] = second compound 10 µM, first compound 0.316 µM
[34] = second compound 10 µM, first compound 1 µM
[35] = second compound 10 µM, first compound 3.16 µM
[36] = second compound 10 µM, first compound 10 µM
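Note: spheroids exposed to agents for 7 days before reading.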
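Throughout, for viability, T/C: luminescence signal used as a stand-in for viable cells.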

SMILES: CC(Nc1ccc2c(c1)OCCn1cc(N3C(=O)OCC3C(F)F)nc1-2)C(N)=O (stereo not given)
viability, T/C (compound 0.0316 µM): 86.6% and 85.8%
viability, T/C (compound 0.1 µM): 90.3% and 69.1%
viability, T/C (compound 0.316 µM): 59.9% and 53%
viability, T/C (compound 1 µM): 56.3% and 54%
viability, T/C (compound 3.16 µM): 49.6% and 35.9%
viability, T/C (compound 10 µM): 43.6% and 36.5%

IC50 (second compound 0.0316 µM): > 10000 nM
IC50 (second compound 0.1 µM): 1620 nM
IC50 (second compound 0.316 µM): < 31.6 nM
IC50 (second compound 1 µM): < 31.6 nM
IC50 (second compound 3.16 µM): < 31.6 nM
IC50 (second compound 10 µM): < 31.6 nM
SMILES: CCCS(=O)(=O)Nc1ccc(F)c(C(=O)c2c[nH]c3ncc(-c4ccc(Cl)cc4)cc23)c1F + CNC(=O)c1ccc(Nc2nc(OC3CCCC3)c3c(-c4ccc5nc(C)oc5c4)c[nH]c3n2)c(OC)c1
viability, T/C [1]: 103%
viability, T/C [2]: 118%
viability, T/C [3]: 115%
viability, T/C [4]: 123%
viability, T/C [5]: 107%
viability, T/C [6]: 52.5%
viability, T/C [7]: 65.1%
viability, T/C [8]: 70%
viability, T/C [9]: 49.1%
viability, T/C [10]: 59.7%
viability, T/C [11]: 44%
viability, T/C [12]: 37.2%
viability, T/C [13]: 19.9%
viability, T/C [14]: 22.5%
viability, T/C [15]: 23.6%
viability, T/C [16]: 22.6%
viability, T/C [17]: 32.6%
viability, T/C [18]: 24.3%
viability, T/C [19]: 18.9%
viability, T/C [20]: 20.6%
viability, T/C [21]: 23.6%
viability, T/C [22]: 27%
viability, T/C [23]: 30.7%
viability, T/C [24]: 24.8%
viability, T/C [25]: 19.8%
viability, T/C [26]: 25.4%
viability, T/C [27]: 23.9%
viability, T/C [28]: 28%
viability, T/C [29]: 29%
viability, T/C [30]: 23.4%
viability, T/C [31]: 21.5%
viability, T/C [32]: 23.3%
viability, T/C [33]: 26.8%
viability, T/C [34]: 29.1%
viability, T/C [35]: 31.1%
viability, T/C [36]: 29%

SMILES: CC(=O)O[C@H]1C(=O)[C@@]2(C)[C@H]([C@H](OC(=O)c3ccccc3)[C@]3(O)C[C@H](OC(=O)[C@H](O)[C@@H](NC(=O)c4ccccc4)c4ccccc4)C(C)=C1C3(C)C)[C@]1(OC(C)=O)CO[C@@H]1C[C@@H]2O + CN1CCN(c2cc(C(=O)Nc3cc4cc(-c5cnn(C)c5)ccc4cn3)ccn2)CC1
IC50 (second compound 0.0316 µM): < 31.6 nM
IC50 (second compound 0.1 µM): < 31.6 nM
IC50 (second compound 0.316 µM): < 31.6 nM
IC50 (second compound 1 µM): < 31.6 nM
IC50 (second compound 3.16 µM): < 31.6 nM
IC50 (second compound 10 µM): < 31.6 nM
viability, T/C [1]: 9.18%
viability, T/C [2]: 9.07%
viability, T/C [3]: 7.15%
viability, T/C [4]: 8.23%
viability, T/C [5]: 10.1%
viability, T/C [6]: 14.8%
viability, T/C [7]: 7.97%
viability, T/C [8]: 9.15%
viability, T/C [9]: 10.9%
viability, T/C [10]: 10.7%
viability, T/C [11]: 8.46%
viability, T/C [12]: 15.1%
viability, T/C [13]: 9.05%
viability, T/C [14]: 9.91%
viability, T/C [15]: 10.6%
viability, T/C [16]: 11.4%
viability, T/C [17]: 15.1%
viability, T/C [18]: 14.1%
viability, T/C [19]: 0.76%
viability, T/C [20]: 0.53%
viability, T/C [21]: 1.35%
viability, T/C [22]: 0.93%
viability, T/C [23]: 0.78%
viability, T/C [24]: 1.13%
viability, T/C [25]: 0.39%
viability, T/C [26]: 0.51%
viability, T/C [27]: 0.58%
viability, T/C [28]: 0.7%
viability, T/C [29]: 1.32%
viability, T/C [30]: 2.27%
viability, T/C [31]: 0.34%
viability, T/C [32]: 0.28%
viability, T/C [33]: 0.49%
viability, T/C [34]: 0.48%
viability, T/C [35]: 0.4%
viability, T/C [36]: 0.37%
